# Assay results from patent US10513511B2, “Aqueous suspension formulation comprising 4-(4-(4-(((3R,5R)-5-((1H-1,2,4-triazol-1-yl)methyl)-5-(2,4-difluoro-phenyl)tetrahydrofuran-3-yl)methoxy)-3-methylphenyl) or a pharmaceutically acceptable salt thereof” (PULMOCIDE LIMITED, priority 2015, dated 2019).
# Legend:
# [1] = test system: Aspergillus fumigatus (azole susceptible strain: NCPF2010); assay: Aspergillus fumigatus infection of human alveoli bilayers (transwells), azole susceptible strain; assay type: cell-based; conditions: for MIC50 / MIC90: Aspergillus fumigatus, NCPF2010, 24 h; for MIC50: read-out: MIC50, invasion into the lower chamber in human alveoli bilayers; for MIC90: read-out: MIC90, invasion into the lower chamber in human alveoli bilayers; for GM Levels in the Lower Chamber, OD value / GM Levels in the Lower Chamber, % inhibition vs.control / DFB50: Days taken to reach a fungal burden of 50% of control: Compound (Ia) 0.1 μg/mL upper chamber, posaconazole 0.01 μg/mL lower chamber, combination of both
# Method: (§1) In vitro models of human alveoli, consisting of a bilayer of human alveolar epithelial cells and endothelial cells, were prepared as previously described (Hope et al., 2007). This system allows administration of a test compound to the upper (“air” space) and/or lower (“systemic” space) compartments. This flexibility has been exploited to explore the effects of combination treatment by dosing Compound (I) to the upper chamber and posaconazole or other anti-fungal agents to the lower chamber. Primary human pulmonary artery endothelial cells (HPAEC) were harvested and diluted to 10^6 cells/mL in EGM-2 media (Lonza, Basel, Switzerland). Transwells were inverted and the cell suspension (100 μL/well) applied to the base of each transwell. The inverted transwells were incubated at RT within a flow hood for 2 hr after which they were turned upright. EGM-2 media was added to the lower (700 μL/well) and upper (100 μL/well) compartments and the transwells were incubated for 48 hr (37° C., 5% CO2). The EGM-2 media in the lower compartment was then replaced with fresh EGM-2 media. A549 cells were harvested and diluted to 5×10^5 cells/mL in 10% EBM, then added to the upper compartment (100 μL/well) of all transwells and the plates incubated for 72 hr (37° C., 5% CO2). Conidia of itraconazole sensitive Aspergillus fumigatus s (NCPF2010) and itraconazole resistant (TR34-L98H) strains were cultured separately in Sabouraud dextrose agar for 3 days. A stock conidia suspension of either strain was prepared from a Sabouraud dextrose agar culture by washing with PBS-tween (10 mL; PBS containing 0.05% Tween-20, 100 U/mL Penicillin and 100 U/mL Streptomycin). The conidia count was assessed using a Neubauer haemocytometer and adjusted to 10^6 conidia/mL with PBS. A working stock of conidia was prepared in EBM (10^5 conidia/mL) immediately prior to use.
# (§2) Test and reference compounds (or neat DMSO as the vehicle) were added to the appropriate wells of 24-well plates (3 μL/well containing 600 μL of 2% FBS EBM) for lower compartment treatment and to 96-well plates (1 μL/well containing 200 μL of 2% FBS EBM) for the treatment of the upper compartment, to provide a final DMSO concentration of 0.5%. The media in the upper compartment was aspirated and that containing the appropriate test and reference compounds, or vehicle, were added (100 μL/well). Transwells were then transferred into the 24-well plate containing the test and reference compounds or DMSO vehicle. After incubation for 1 hr (35° C., 5% CO2) the conidia suspension (10 μL/well) was added to the upper compartment of each transwell. Plates were then incubated for 24 hr (35° C., 5% CO2). Supernatants from each compartment (5 μL/compartment) were collected and stored (−20° C.). Media was replaced daily after collection of the supernatants and all wells were treated with test and reference compounds or with DMSO, as described above, for 3 days. Samples continued to be collected until fungal growth was visible by eye in all transwells. The levels of GM in the supernatant in lower compartment were then measured by ELISA (BioRad, CA, USA) as an index of Aspergillus fumigatus invasion.
# [2] = test system: Aspergillus fumigatus (azole resistant strain: TR34/L98H); assay: Aspergillus fumigatus infection of human alveoli bilayers (transwells), azole resistant strain; assay type: cell-based; conditions: for MIC50 / MIC90: Aspergillus fumigatus, 24 h; for MIC50: read-out: MIC50, invasion into the lower chamber in human alveoli bilayers; for MIC90: read-out: MIC90, invasion into the lower chamber in human alveoli bilayers
# Method: as §1, §2
# [3] = Day 1, TR34-L98H, Compound 0.3 μg/mL upper chamber, posaconazole 0.1 μg/mL lower chamber, combination of both
# [4] = Day 2, TR34-L98H, Compound 0.3 μg/mL upper chamber, posaconazole 0.1 μg/mL lower chamber, combination of both
# [5] = Day 3, TR34-L98H, Compound 0.3 μg/mL upper chamber, posaconazole 0.1 μg/mL lower chamber, combination of both
SMILES,MIC50 [1] [µM],MIC90 [1] [µM],"GM Levels in the Lower Chamber, OD value ([1]; Day 0, NCPF2010) [OD]","GM Levels in the Lower Chamber, % inhibition vs.control ([1]; Day 1, NCPF2010) [%]","GM Levels in the Lower Chamber, OD value ([1]; Day 1, NCPF2010) [OD]","GM Levels in the Lower Chamber, % inhibition vs.control ([1]; Day 2, NCPF2010) [%]","GM Levels in the Lower Chamber, OD value ([1]; Day 2, NCPF2010) [OD]","GM Levels in the Lower Chamber, % inhibition vs.control ([1]; Day 3, NCPF2010) [%]","GM Levels in the Lower Chamber, OD value ([1]; Day 3, NCPF2010) [OD]","GM Levels in the Lower Chamber, % inhibition vs.control ([1]; Day 4, NCPF2010) [%]","GM Levels in the Lower Chamber, OD value ([1]; Day 4, NCPF2010) [OD]","GM Levels in the Lower Chamber, % inhibition vs.control ([1]; Day 5, NCPF2010) [%]","GM Levels in the Lower Chamber, OD value ([1]; Day 5, NCPF2010) [OD]","GM Levels in the Lower Chamber, % inhibition vs.control ([1]; Day 6, NCPF2010) [%]","GM Levels in the Lower Chamber, OD value ([1]; Day 6, NCPF2010) [OD]","GM Levels in the Lower Chamber, % inhibition vs.control ([1]; Day 7, NCPF2010) [%]","GM Levels in the Lower Chamber, OD value ([1]; Day 7, NCPF2010) [OD]",DFB50: Days taken to reach a fungal burden of 50% of control ([1]; NCPF2010) [days],MIC50 [2] [µM],MIC90 [2] [µM],also measured
"CC[C@@H]([C@H](C)O)n1ncn(-c2ccc(N3CCN(c4ccc(OC[C@@H]5CO[C@@](Cn6cncn6)(c6ccc(F)cc6F)C5)cc4)CC3)cc2)c1=O [Posaconazole, reference compound]",0.155,0.212,0,89,0.074,1.5,1.71,7.1,1.70,−3.0,1.70,−3.6,1.69,−3.0,1.59,2.5,1.62,1.16,0.315,0.793,"GM Levels in the Lower Chamber, OD value ([2]; Day 0, TR34-L98H, Compound 0.3 μg/mL upper chamber, posaconazole 0.1 μg/mL lower chamber, combination of both): 0 OD; GM Levels in the Lower Chamber, % inhibition vs. vehicle control [2, 3]: 98%; GM Levels in the Lower Chamber, OD value [2, 3]: 0.016 OD; GM Levels in the Lower Chamber, % inhibition vs. vehicle control [2, 4]: 35%; GM Levels in the Lower Chamber, OD value [2, 4]: 0.73 OD; GM Levels in the Lower Chamber, % inhibition vs. vehicle control [2, 5]: −10%; GM Levels in the Lower Chamber, OD value [2, 5]: 1.16 OD; DFB50: Days taken to reach a fungal burden of 50% of control ([2]; TR34-L98H, Compound 0.3 μg/mL upper chamber, posaconazole 0.1 μg/mL lower chamber, combination of both): 1.94 days"
"Cc1cc(N2CCN(c3ccc(C(=O)N[C@H]4CCCC[C@@H]4O)cc3)CC2)ccc1OC[C@@H]1CO[C@@](Cn2cncn2)(c2ccc(F)cc2F)C1 [Compound (Ia), 4-(4-(4-(((3R,5R)-5-((1H-1,2,4-triazol-1-yl)methyl)-5-(2,4-difluorophenyl)tetrahydrofuran-3-yl)methoxy)-3-methylphenyl)piperazin-1-yl)-N-((1S,2S)-2-hydroxycyclohexyl) benzamide]",0.154,0.185,0,66,0.24,1.5,1.71,8.6,1.67,−1.6,1.68,0.2,1.63,−1.8,1.57,7.1,1.54,1.04,0.261,0.417,"maximum inhibition of GM levels in the bottom chamber ([1]; NCPF2010, administration to the apical chamber, 1 day post infection): exceeding 90%; maximum inhibition of GM levels in the bottom chamber ([2]; TR34/L98H, administration to the apical chamber, 1 day post infection): exceeding 90%"
